Earlier results as cited in patent US8871744B2, “Compounds and methods for selectively targeting tumor-associated mucins” (B & G Partyers, LLC, priority 2010, dated 2014).

Key:
NMuMG cells = NMuMG cells stimulated with TGF-β1
[1] = test system: sialomucin complex/rat Muc4; settings: transfected MEC, activated in fetal calf serum
[2] = test system: normal mammary epithelial cells

SMILES: NC(=O)c1ccc(-c2nc(-c3ccc4c(c3)OCO4)c(-c3ccccn3)[nH]2)cc1 [SB431542, 4-[4-(1,3-benzodioxol-5-yl)-5-(2-pyridinyl)-1H-imidazol-2-yl]benzamide]
- morphological changes associated with EMT (NMuMG cells): inhibited
- phosphorylation of Smad2 (NMuMG cells): inhibited

SMILES: CN[C@@H]1C[C@H]2O[C@@](C)([C@@H]1OC)n1c3ccccc3c3c4c(c5c6ccccc6n2c5c31)C(=O)NC4 [staurosporine]
- Muc4 protein expression [1]: inhibited
- epithelial to mesenchymal transition stimulated by TGF-β [2]: abrogated
